In the NIST ThermoML archive (doi:10.1021/acs.jced.8b00537):
± gives the expanded uncertainty stated by the source.

Experiment: xn = mol fraction of the nth substance listed
Details: 100 kPa, Liquid; for speed of sound: Frequency=3 MHz, Single path-length method; for mass density: Vibrating tube method; for viscosity: Capillary tube (Ostwald / Ubbelohde) method

CC[S+](CC)CC.O=S(=O)([N-]S(=O)(=O)C(F)(F)F)C(F)(F)F [triethylsulfonium bis((trifluoromethyl)sulfonyl)imide] + CCCO
Details | mass density [kg/m3] | speed of sound [m/s] | viscosity [mPa·s]
318.15 K, x1 = 0.04926 | 888 ± 2 | – | –
318.15 K, x1 = 0.1003 | 974 ± 2 | – | –
318.15 K, x1 = 0.1993 | 1097 ± 2 | – | –
318.15 K, x1 = 0.3008 | 1185 ± 2 | – | –
318.15 K, x1 = 0.3991 | 1249 ± 3 | – | –
318.15 K, x1 = 0.5023 | 1300 ± 3 | 1164.2 ± 6 | –
318.15 K, x1 = 0.5987 | 1338 ± 3 | 1171.9 ± 6 | –
318.15 K, x1 = 0.6987 | 1371 ± 3 | 1179.6 ± 6 | –
318.15 K, x1 = 0.7947 | 1397 ± 3 | 1185.8 ± 6.1 | –
318.15 K, x1 = 0.903 | 1422 ± 3 | 1191.9 ± 6.1 | –
318.15 K, x1 = 1 | 1441 ± 3 | 1203.1 ± 6.1 | –
323.15 K, x1 = 0.04926 | 884 ± 2 | 1113.8 ± 6 | 1.404 ± 0.11
323.15 K, x1 = 0.1003 | 969 ± 2 | 1109.1 ± 6 | 1.833 ± 0.15
323.15 K, x1 = 0.1993 | 1092 ± 2 | 1117.1 ± 6 | 2.651 ± 0.21
323.15 K, x1 = 0.3008 | 1180 ± 2 | 1129.2 ± 6 | –
323.15 K, x1 = 0.3991 | 1244 ± 3 | 1141.1 ± 6 | 4.67 ± 0.38
323.15 K, x1 = 0.5023 | 1295 ± 3 | 1152.9 ± 6 | 5.379 ± 0.43
323.15 K, x1 = 0.5987 | 1334 ± 3 | 1160.8 ± 6 | 6.831 ± 0.55
323.15 K, x1 = 0.6987 | 1366 ± 3 | 1168.8 ± 6 | 8.347 ± 0.67
323.15 K, x1 = 0.7947 | 1392 ± 3 | 1175.2 ± 6.1 | 10.12 ± 0.81
323.15 K, x1 = 0.903 | 1417 ± 3 | 1181.5 ± 6.1 | 12.31 ± 0.99
323.15 K, x1 = 1 | 1436 ± 3 | 1193.7 ± 6.1 | 14.31 ± 1.1
328.15 K, x1 = 0.04926 | 879 ± 2 | 1098.6 ± 6 | 1.268 ± 0.1
328.15 K, x1 = 0.1003 | 965 ± 2 | 1095.1 ± 6 | 1.648 ± 0.13
328.15 K, x1 = 0.1993 | 1087 ± 2 | 1104.3 ± 6 | 2.38 ± 0.19
328.15 K, x1 = 0.3008 | 1175 ± 2 | 1117.2 ± 6 | 3.13 ± 0.25
328.15 K, x1 = 0.3991 | 1239 ± 3 | 1129.5 ± 6 | 4.187 ± 0.34
328.15 K, x1 = 0.5023 | 1290 ± 3 | 1141.6 ± 6 | 4.822 ± 0.39
328.15 K, x1 = 0.5987 | 1329 ± 3 | 1149.9 ± 6 | 6.099 ± 0.49
328.15 K, x1 = 0.6987 | 1362 ± 3 | 1158.1 ± 6 | 7.438 ± 0.6
328.15 K, x1 = 0.7947 | 1388 ± 3 | 1164.7 ± 6.1 | 8.976 ± 0.72
328.15 K, x1 = 0.903 | 1412 ± 3 | 1171.2 ± 6.1 | 10.86 ± 0.87
328.15 K, x1 = 1 | 1431 ± 3 | 1184.7 ± 6.1 | 12.5 ± 1
333.15 K, x1 = 0.04926 | 875 ± 2 | 1083.4 ± 6 | 1.149 ± 0.092
333.15 K, x1 = 0.1003 | 960 ± 2 | 1081.1 ± 6 | 1.489 ± 0.12
333.15 K, x1 = 0.1993 | 1082 ± 2 | 1091.5 ± 6 | 2.148 ± 0.17
333.15 K, x1 = 0.3008 | 1170 ± 2 | 1105.2 ± 6 | 2.825 ± 0.23
333.15 K, x1 = 0.3991 | 1234 ± 3 | 1118 ± 6 | 3.775 ± 0.3
333.15 K, x1 = 0.5023 | 1285 ± 3 | 1130.5 ± 6 | 4.346 ± 0.35
333.15 K, x1 = 0.5987 | 1324 ± 3 | 1139.1 ± 6 | 5.483 ± 0.44
333.15 K, x1 = 0.6987 | 1357 ± 3 | 1147.5 ± 6 | 6.667 ± 0.54
333.15 K, x1 = 0.7947 | 1383 ± 3 | 1154.3 ± 6.1 | 8.024 ± 0.64
333.15 K, x1 = 0.903 | 1407 ± 3 | 1161 ± 6.1 | 9.653 ± 0.78
333.15 K, x1 = 1 | 1427 ± 3 | 1175.9 ± 6.1 | 10.99 ± 0.88
338.15 K, x1 = 0.04926 | 870 ± 2 | 1068.2 ± 6 | 1.044 ± 0.084
338.15 K, x1 = 0.1003 | 955 ± 2 | 1067.1 ± 6 | 1.352 ± 0.11
338.15 K, x1 = 0.1993 | 1078 ± 2 | 1078.7 ± 6 | 1.95 ± 0.16
338.15 K, x1 = 0.3008 | 1166 ± 2 | 1093.3 ± 6 | 2.563 ± 0.21
338.15 K, x1 = 0.3991 | 1229 ± 3 | 1106.6 ± 6 | 3.422 ± 0.27
338.15 K, x1 = 0.5023 | 1281 ± 3 | 1119.3 ± 6 | 3.941 ± 0.32
338.15 K, x1 = 0.5987 | 1319 ± 3 | 1128.3 ± 6 | 4.956 ± 0.4
338.15 K, x1 = 0.6987 | 1352 ± 3 | 1137 ± 6 | 6.007 ± 0.48
338.15 K, x1 = 0.7947 | 1378 ± 3 | 1144 ± 6.1 | 7.206 ± 0.58
338.15 K, x1 = 0.903 | 1403 ± 3 | 1150.8 ± 6.1 | 8.628 ± 0.69
338.15 K, x1 = 1 | 1422 ± 3 | 1166.8 ± 6.1 | 9.726 ± 0.78
343.15 K, x1 = 0.04926 | 866 ± 2 | 1052.9 ± 6 | 0.953 ± 0.076
343.15 K, x1 = 0.1003 | 951 ± 2 | 1053.3 ± 6 | 1.232 ± 0.099
343.15 K, x1 = 0.1993 | 1073 ± 2 | 1066.2 ± 6 | 1.778 ± 0.14
343.15 K, x1 = 0.3008 | 1161 ± 2 | 1081.5 ± 6 | 2.339 ± 0.19
343.15 K, x1 = 0.3991 | 1224 ± 3 | 1095.4 ± 6 | 3.123 ± 0.25
343.15 K, x1 = 0.5023 | 1276 ± 3 | 1108.3 ± 6 | 3.594 ± 0.29
343.15 K, x1 = 0.5987 | 1315 ± 3 | 1117.8 ± 6 | 4.507 ± 0.36
343.15 K, x1 = 0.6987 | 1347 ± 3 | 1126.8 ± 6 | 5.444 ± 0.44
343.15 K, x1 = 0.7947 | 1373 ± 3 | 1134 ± 6.1 | 6.506 ± 0.52
343.15 K, x1 = 0.903 | 1398 ± 3 | 1141 ± 6.1 | 7.766 ± 0.62
343.15 K, x1 = 1 | 1417 ± 3 | 1157.6 ± 6.1 | 8.659 ± 0.69
